Legend:
[1] = tested on: HDACs (HeLa cell nuclear extracts); test: HDAC enzymatic activity, Biomol Color de Lys system; type: biochemical; conditions: 1 hour, 25° C.
Method in brief: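 HeLa nuclear extract incubated with serially diluted compound and […] artificial substrate in 50 mM Tris/Cl pH 8.0, 137 mM NaCl, 2.7 mM KCl, 1 mM MgCl2. Run 1 h at 25 °C, stopped with developer. Fluorescence read (ex 350-380, em 440-460 nm); IC50 from sigmoidal dose-response fit.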

PI3Kα (p110α/p85α) = biological target: T1, PI3Kα (p110α/p85α) (Homo sapiens, UniProt P42336); test: PI3Kα ADP-Glo assay; type: biochemical; conditions: 20 μM PIP2, 10 μM ATP, 30 minutes
T1 construct: GST (N); made in house; host or cells: Baculovirus-infected Sf9 cells
Method in brief: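 Recombinant full-length human GST-p110α/His-p85α, co-expressed in Sf9 cells, was incubated 30 min at room temperature with 20 μM PIP2 and 10 μM ATP. The buffer was 50 mM HEPES pH 7.4, 150 mM NaCl, 5 mM MgCl2, 1 mM DTT, 3 µM orthovanadate and 0.5% DMSO. ADP formed was detected by ADP-Glo luminescence.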

[2] = biological target: T2, mTor serine/threonine protein kinase (Homo sapiens, UniProt P42345); test: mTor kinase radioisotope assay; type: biochemical; conditions: 70 uM ATP, 40 minutes; read-out: m-TOR IC50
T2 construct: FLAG; made in house; host or cells: Baculovirus expression system in Sf21 cells
Description: (F) an In Vitro Assay which-Determines the Ability of a Test Compound to Inhibit mTor Serine/Threonine Protein Kinase.
The ability of compounds to inhibit mTor activity was assayed using standard radioisotope assay for kinase. Briefly, FLAG-tagged, recombinant full-length human mTor (GenBank accession No. NM_004958) was expressed using baculovirus expression system in Sf21 cells and purified using antibody affinity column. Purified enzyme was incubated with c-terminal fragment of p70S6K as it's substrate in the presence of ATP. p33 ATP tracers were included in the assay to monitor the enzyme activity. Final assay condition was with 50 mM HEPES pH 7.5, 1 mM EGTA, 0.01% Tween 20, 2 mg/ml substrate, 3 mM Manganese Chloride and 70 uM of ATP and was carried out at room temperature for 40 minutes. The reaction was then stopped by the addition of 3% phosphoric acid solution. 10 ul of the reaction was spotted onto a P30 filtermat and washed three times for 5 minutes in 75 mM phosphoric acid and once in methanol prior to drying and scintillation counting. Different concentrations of compounds were added to reaction to assess the activity of compounds to inhibit mTor kinase. IC50 was calculated using Prism software with sigmoidal dose-response curve fitting.

CFPAC-1 = test: Cell proliferation assay (CellTiter-Glo); type: cell-based; conditions: Homo sapiens, Pancreas, 72 hours, 0.5% fetal bovine serum, read-out: antiproliferative activity IC50, CFPAC-1
Description: (§1) Cell Proliferation Assay:
(§2) Cancer cell lines were plated at 5,000 to 10,000 per well in 96-well flat bottomed plates with various concentration of compounds. The cells were incubated with compounds for 72 hours in the presence of 0.5% of fetal bovine serum. Growth inhibition was accessed by adenosine triphosphate (ATP) content assay using Promega CellTiter-Glo kit. Promega CellTiter-Glo kit is an ATP monitoring system based on firefly luciferase. Briefly, 16 μl of mammalian cell lysis and substrate solution was added to 84 μl of culture medium per well to lyse the cells and stabilize the ATP. The mixture was shaken and incubated for 30 minutes and subsequently the luminescence was measured.

CaPan2 = test: Cell proliferation assay (CellTiter-Glo); type: cell-based; conditions: Homo sapiens, Capan-2; Pancreas; 72 hours, 0.5% fetal bovine serum; read-out: antiproliferative activity IC50, CaPan2
Description: as §1, §2

Calu6 = test: Cell proliferation assay (CellTiter-Glo); type: cell-based; conditions: Homo sapiens, Calu-6; NSCLC; 72 hours, 0.5% fetal bovine serum; read-out: antiproliferative activity IC50, Calu6
Description: as §1, §2

MDA-MB-231 = test: Cell proliferation assay (CellTiter-Glo); type: cell-based; conditions: Homo sapiens, Breast, 72 hours, 0.5% fetal bovine serum, read-out: antiproliferative activity IC50, MDA-MB-231
Description: as §1, §2

MiaPaca1 = test: Cell proliferation assay (CellTiter-Glo); type: cell-based; conditions: Pancreas; 72 hours, 0.5% fetal bovine serum; read-out: antiproliferative activity IC50, MiaPaca1
Description: as §1, §2

PANC-1 = test: Cell proliferation assay (CellTiter-Glo); type: cell-based; conditions: Homo sapiens, Pancreas, 72 hours, 0.5% fetal bovine serum, read-out: antiproliferative activity IC50, PANC-1
Description: as §1, §2

SW1990 = test: Cell proliferation assay (CellTiter-Glo); type: cell-based; conditions: Homo sapiens, Pancreas, 72 hours, 0.5% fetal bovine serum, read-out: antiproliferative activity IC50, SW1990
Description: as §1, §2

WiDr = test: Cell proliferation assay (CellTiter-Glo); type: cell-based; conditions: Homo sapiens, Colon, 72 hours, 0.5% fetal bovine serum, read-out: antiproliferative activity IC50, WiDr
Description: as §1, §2

HCT116 = test: Cell proliferation assay (CellTiter-Glo); type: cell-based; conditions: Homo sapiens, HCT-116; Colon; 72 hours, 0.5% fetal bovine serum; read-out: antiproliferative activity IC50, HCT116
Description: as §1, §2

T1 sequence (P42336 whole entry): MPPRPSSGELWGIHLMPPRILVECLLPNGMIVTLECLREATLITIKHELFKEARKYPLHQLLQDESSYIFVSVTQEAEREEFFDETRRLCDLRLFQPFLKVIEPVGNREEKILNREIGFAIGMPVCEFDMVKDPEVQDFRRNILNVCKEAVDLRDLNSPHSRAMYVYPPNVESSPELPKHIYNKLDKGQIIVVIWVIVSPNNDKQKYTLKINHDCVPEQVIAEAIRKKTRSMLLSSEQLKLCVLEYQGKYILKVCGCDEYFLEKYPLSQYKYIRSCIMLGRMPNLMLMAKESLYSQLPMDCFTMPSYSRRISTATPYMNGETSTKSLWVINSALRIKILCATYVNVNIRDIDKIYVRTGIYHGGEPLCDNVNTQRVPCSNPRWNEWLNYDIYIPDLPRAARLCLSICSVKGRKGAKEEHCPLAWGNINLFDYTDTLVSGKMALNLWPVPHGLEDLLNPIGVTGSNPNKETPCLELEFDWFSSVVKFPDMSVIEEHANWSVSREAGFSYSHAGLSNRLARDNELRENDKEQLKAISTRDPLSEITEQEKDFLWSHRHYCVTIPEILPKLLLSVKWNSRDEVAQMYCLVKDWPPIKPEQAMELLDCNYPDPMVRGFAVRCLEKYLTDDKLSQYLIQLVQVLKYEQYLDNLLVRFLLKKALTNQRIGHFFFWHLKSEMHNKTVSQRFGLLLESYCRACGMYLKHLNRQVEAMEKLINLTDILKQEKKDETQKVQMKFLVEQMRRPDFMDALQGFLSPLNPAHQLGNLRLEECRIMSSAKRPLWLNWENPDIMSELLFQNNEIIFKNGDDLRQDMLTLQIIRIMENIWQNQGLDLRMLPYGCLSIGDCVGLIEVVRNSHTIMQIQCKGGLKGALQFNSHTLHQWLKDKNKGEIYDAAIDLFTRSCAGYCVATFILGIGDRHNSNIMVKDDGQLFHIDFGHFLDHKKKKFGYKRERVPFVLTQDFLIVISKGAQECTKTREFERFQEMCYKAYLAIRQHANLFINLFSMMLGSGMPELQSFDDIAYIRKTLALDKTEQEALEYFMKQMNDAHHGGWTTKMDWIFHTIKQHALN
T1 sequence (P27986 whole entry partner): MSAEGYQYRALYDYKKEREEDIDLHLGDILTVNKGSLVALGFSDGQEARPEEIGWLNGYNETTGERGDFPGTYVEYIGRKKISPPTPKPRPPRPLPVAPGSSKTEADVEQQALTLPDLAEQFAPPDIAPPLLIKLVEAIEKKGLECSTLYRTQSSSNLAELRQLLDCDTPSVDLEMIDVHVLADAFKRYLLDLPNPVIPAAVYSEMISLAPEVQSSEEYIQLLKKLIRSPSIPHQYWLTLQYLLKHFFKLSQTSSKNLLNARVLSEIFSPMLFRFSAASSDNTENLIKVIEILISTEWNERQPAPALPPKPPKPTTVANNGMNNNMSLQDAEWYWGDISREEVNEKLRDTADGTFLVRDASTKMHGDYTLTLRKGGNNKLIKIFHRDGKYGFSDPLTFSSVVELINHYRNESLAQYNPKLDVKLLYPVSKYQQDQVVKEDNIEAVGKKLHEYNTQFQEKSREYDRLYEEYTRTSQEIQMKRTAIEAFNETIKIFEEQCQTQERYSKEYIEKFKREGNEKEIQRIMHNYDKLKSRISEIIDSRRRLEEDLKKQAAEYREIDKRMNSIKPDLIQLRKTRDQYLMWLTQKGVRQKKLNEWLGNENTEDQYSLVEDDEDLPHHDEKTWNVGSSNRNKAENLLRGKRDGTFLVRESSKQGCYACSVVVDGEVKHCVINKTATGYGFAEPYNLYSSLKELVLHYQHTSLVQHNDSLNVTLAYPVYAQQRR

| IC50 [1] [nM] | IC50 (PI3Kα (p110α/p85α)) [nM] | IC50 [2] [nM] | melting point [°C] | IC50 (Calu6) [nM] | IC50 (MDA-MB-231) [nM] | IC50 (MiaPaca1) [nM] | IC50 (PANC-1) [nM] | IC50 (SW1990) [nM] | IC50 (HCT116) [nM] | Compound | IC50 (CFPAC-1) [nM] | IC50 (CaPan2) [nM] | IC50 (WiDr) [nM] |
| --- | --- | --- | --- | --- | --- | --- | --- | --- | --- | --- | --- | --- | --- |
| < 100 | < 100 | – | 230 to 233 | 100 to 1000 | 10 to 100 | 10 to 100 | 100 to 1000 | 10 to 100 | – | Cc1nc2ccc(-c3nc(N4CCOCC4)c4sc(CN(C)c5ncc(C(=O)NO)cn5)cc4n3)cc2[nH]1 [Compound 199, N-hydroxy-2-(methyl((2-(2-methyl-3H-benzo[d]imidazol-5-yl)-4-morpholinothieno[3,2-d]pyrimidin-6-yl)methyl)amino)pyrimidine-5-carboxamide] | – | 1000 to 10000 | 10 to 100 |
| < 100 | 100 to 1000 | > 10000 | 164 to 169 | – | – | – | – | – | – | CN(Cc1cc2nc(-c3cnn(C)c3)nc(N3CCOCC3)c2s1)c1ncc(C(=O)NO)cn1 [Compound 246, N-Hydroxy-2-(methyl((2-(1-methyl-1H-pyrazol-4-yl)-4-morpholinothieno[3,2-d]pyrimidin-6-yl)methyl)amino)pyrimidine-5-carboxamide] | – | – | – |
| < 100 | < 100 | > 10000 | 143 to 145 | – | – | – | – | – | – | CN(Cc1cc2nc(-c3ccc(OCCO)nc3)nc(N3CCOCC3)c2s1)c1ncc(C(=O)NO)cn1 [Compound 256, N-Hydroxy-2-(((2-(6-(2-hydroxyethoxy)pyridin-3-yl)-4-morpholinothieno[3,2-d]pyrimidin-6-yl)methyl)(methyl)amino)pyrimidine-5-carboxamide] | – | – | – |
| < 100 | < 100 | – | 215 to 220 | – | 10 to 100 | – | – | – | – | COc1ncc(-c2nc(N3CCOCC3)c3sc(CN(C)c4ncc(C(=O)NO)cn4)cc3n2)cn1 [Compound 261, N-Hydroxy-2-(((2-(2-methoxypyrimidin-5-yl)-4-morpholinothieno[3,2-d]pyrimidin-6-yl)methyl)(methyl)amino)pyrimidine-5-carboxamide] | – | – | – |
| < 100 | < 100 | < 100 | 195 to 200 | – | – | – | – | – | – | CN(Cc1cc2nc(-c3ccc(N)c(CO)c3)nc(N3CCOCC3)c2s1)c1ncc(C(=O)NO)cn1 [Compound 285, 2-(((2-(4-Amino-3-(hydroxymethyl)phenyl)-4-morpholinothieno[3,2-d]pyrimidin-6-yl)methyl)(methyl)amino)-N-hydroxypyrimidine-5-carboxamide] | – | – | – |
| < 100 | 100 to 1000 | 100 to 1000 | 169 to 173 | – | – | – | – | – | – | C[C@@H](O)c1cccc(-c2nc(N3CCOCC3)c3sc(CN(C)c4ncc(C(=O)NO)cn4)cc3n2)c1 [Compound 297, (R)—N-Hydroxy-2-(((2-(3-(1-hydroxyethyl)phenyl)-4-morpholinothieno[3,2-d]pyrimidin-6-yl)methyl)(methyl)amino)pyrimidine-5-carboxamide] | – | – | – |
| < 100 | < 100 | 100 to 1000 | > 300 | – | – | – | – | – | – | CN(Cc1cc2nc(-c3ccc4[nH]c(C(F)(F)F)nc4c3)nc(N3CCOCC3)c2s1)c1ncc(C(=O)NO)cn1 [Compound 318] | – | – | – |

The next lines start with the compound.

| Compound | IC50 [1] [nM] | IC50 (PI3Kα (p110α/p85α)) [nM] | IC50 [2] [nM] | melting point [°C] | IC50 (Calu6) [nM] | IC50 (MDA-MB-231) [nM] | IC50 (MiaPaca1) [nM] | IC50 (PANC-1) [nM] | IC50 (SW1990) [nM] | IC50 (HCT116) [nM] | IC50 (CFPAC-1) [nM] | IC50 (CaPan2) [nM] | IC50 (WiDr) [nM] |
| --- | --- | --- | --- | --- | --- | --- | --- | --- | --- | --- | --- | --- | --- |
| CN(CCCCC(=O)NO)Cc1cc2nc(-c3cccc4[nH]ncc34)nc(N3CCOCC3)c2s1 [Compound 102, 5-(((2-(1H-indazol-4-yl)-4-morpholinothieno[3,2-d]pyrimidin-6-yl)methyl)(methyl)amino)-N-hydroxypentanamide] | 100 to 1000 | 100 to 1000 | 100 to 1000 | 120 to 122 | – | – | – | – | – | – | – | – | – |
| CN(Cc1cc2nc(-c3cccnc3)nc(N3CCOCC3)c2s1)c1ncc(C(=O)NO)cn1 [Compound 109, N-hydroxy-2-(methyl((4-morpholino-2-(pyridin-3-yl)thieno[3,2-d]pyrimidin-6-yl)methyl)amino)pyrimidine-5-carboxamide] | < 100 | < 100 | 100 to 1000 | 160 to 164 | – | – | – | – | – | – | – | – | – |
| CC(=O)Nc1ccc(-c2nc(N3CCOCC3)c3sc(CN(C)c4ncc(C(=O)NO)cn4)cc3n2)cn1 [Compound 112, 2-(((2-(6-acetamidopyridin-3-yl)-4-morpholinothieno[3,2-d]pyrimidin-6-yl)methyl)(methyl)amino)-N-hydroxypyrimidine-5-carboxamide] | < 100 | < 100 | – | 197 to 201 | 10 to 100 | 10 to 100 | 10 to 100 | 10 to 100 | 10 to 100 | – | 100 to 1000 | 100 to 1000 | 100 to 1000 |
| CN(C)c1ncc(-c2nc(N3CCOCC3)c3sc(CN(C)c4ncc(C(=O)NO)cn4)cc3n2)cn1 [Compound 117, 2-(((2-(2-(dimethylamino)pyrimidin-5-yl)-4-morpholinothieno[3,2-d]pyrimidin-6-yl)methyl)(methyl)amino)-N-hydroxypyrimidine-5-carboxamide] | < 100 | < 100 | 1000 to 10000 | 200 to 206 | – | – | – | – | – | – | – | – | – |
| CCc1ncc(-c2nc(N3CCOCC3)c3sc(CN(C)c4ncc(C(=O)NO)cn4)cc3n2)cn1 [Compound 121, 2-(((2-(2-ethylpyrimidin-5-yl)-4-morpholinothieno[3,2-d]pyrimidin-6-yl)methyl)(methyl)amino)-N-hydroxypyrimidine-5-carboxamide] | < 100 | < 100 | 1000 to 10000 | 153 to 156 | – | – | – | – | – | – | – | – | – |
| Cc1nc(N)ncc1-c1nc(N2CCOCC2)c2sc(CN(C)c3ncc(C(=O)NO)cn3)cc2n1 [Compound 125, 2-(((2-(2-amino-4-methylpyrimidin-5-yl)-4-morpholinothieno[3,2-d]pyrimidin-6-yl)methyl)(methyl)amino)-N-hydroxypyrimidine-5-carboxamide] | < 100 | < 100 | – | 195 to 198 | – | – | – | – | – | 10 to 100 | – | – | – |
| CN(Cc1cc2nc(-c3cccc(O)c3)nc(N3CCOCC3)c2s1)c1ncc(C(=O)NO)cn1 [Compound 132, N-hydroxy-2-(((2-(3-hydroxyphenyl)-4-morpholinothieno[3,2-d]pyrimidin-6-yl)methyl)(methyl)amino)pyrimidine-5-carboxamide] | < 100 | < 100 | < 100 | 175 to 181 | 10 to 100 | 10 to 100 | – | – | – | – | – | – | 100 to 1000 |
| CC(=O)Nc1ccc(-c2nc(N3CCOCC3)c3sc(CN(C)c4ncc(C(=O)NO)cn4)cc3n2)cc1 [Compound 157, 2-(((2-(4-acetamidophenyl)-4-morpholinothieno[3,2-d]pyrimidin-6-yl)methyl)(methyl)amino)-N-hydroxypyrimidine-5-carboxamide] | < 100 | < 100 | < 100 | 228 to 230 | 10 to 100 | – | – | – | – | – | – | – | 100 to 1000 |

— US20130102595A1 (Curis, Inc., priority 2011, published 2013)
